Measurements as given in patent publication US12545639B2, “3-substituted phenylamidine compounds, preparation and use thereof” (PI INDUSTRIES LTD., priority 2019, dated 2026).

What was measured:
Alternaria solani = Alternaria solani (early blight of tomato/potato) in vitro test, radial growth on potato dextrose agar; type: cell-based; details: 168 h, 300 ppm in potato dextrose agar, 25° C., 60% relative humidity, seven days, read-out: control compared to the untreated check (radial growth)
Rhizoctonia solani = Rhizoctonia solani (rice sheath blight/potato black scurf) in vitro test, radial growth on potato dextrose agar; type: cell-based; details: 168 h, 300 ppm in potato dextrose agar, 25° C., 60% relative humidity, seven days, read-out: control compared to the untreated check (radial growth)
Colletotrichum capsici = Colletotrichum capsici (anthracnose) in vitro test, radial growth on potato dextrose agar; type: cell-based; details: Colletotrichum truncatum, 168 h; 300 ppm in potato dextrose agar; 25° C., 60% relative humidity, seven days; read-out: control compared to the untreated check (radial growth)
Pyricularia oryzae = assay: microbe, parasite or virus in culture; type: cell-based; details: 168 h, read-out: control compared to the untreated check (radial growth)
Botrytis cinerea = Botrytis cinerea (gray mold) in vitro test, radial growth on potato dextrose agar; type: cell-based; details: 168 h, 300 ppm in potato dextrose agar, 22° C., 90% relative humidity, seven days, read-out: control compared to the untreated check (radial growth)
Phakopsora pachyrhizi = Phakopsora pachyrhizi test in soybean, preventive, in vivo on plants; details: in Glycine max, read-out: Efficacy (% control), disease severity compared to the untreated check
[1] = system: Septoria lycopersici/Corynespora cassicola (CORYCA); assay: Septoria lycopersici/Corynespora cassicola (CORYCA) (leaf spot of tomato) in vitro test, radial growth on potato dextrose agar; type: cell-based; details: 168 h, 300 ppm in potato dextrose agar, 25° C., 70% relative humidity, seven days, read-out: control compared to the untreated check (radial growth)

CCN(C)C=Nc1cc(C)cc(Cc2ccc(Br)c(C)c2)c1Cl [Compound 216, N′-(3-(4-bromo-3-methylbenzyl)-2-chloro-5-methylphenyl)-N-ethyl-N-methylformimidamide]
≥ 70%: inhibition of growth at 300 ppm (Alternaria solani) | inhibition of growth at 300 ppm (Rhizoctonia solani) | inhibition of growth at 300 ppm (Colletotrichum capsici) | inhibition of growth at 300 ppm (Pyricularia oryzae) | inhibition of growth at 300 ppm (Botrytis cinerea) | pest or weed control at 500 ppm (Phakopsora pachyrhizi) | inhibition of growth at 300 ppm [1]

CCN(C)C=Nc1cc(C)cc(Nc2c(C)cccc2F)c1Cl [Compound 133, N′-(2-chloro-3-((2-fluoro-6-methylphenyl)amino)-5-methylphenyl)-N-ethyl-N-methylformimidamide]
≥ 70%: inhibition of growth at 300 ppm (Alternaria solani) | inhibition of growth at 300 ppm (Rhizoctonia solani) | inhibition of growth at 300 ppm (Colletotrichum capsici) | inhibition of growth at 300 ppm (Pyricularia oryzae) | inhibition of growth at 300 ppm (Botrytis cinerea) | pest or weed control at 500 ppm (Phakopsora pachyrhizi) | inhibition of growth at 300 ppm [1]

CCN(C)C=Nc1cc(F)cc(Cc2cc(C)cc(F)c2)c1C [Compound 235, N-ethyl-N′-(5-fluoro-3-(3-fluoro-5-methylbenzyl)-2-methylphenyl)-N-methylformimidamide]
≥ 70%: inhibition of growth at 300 ppm (Alternaria solani) | inhibition of growth at 300 ppm (Rhizoctonia solani) | inhibition of growth at 300 ppm (Colletotrichum capsici) | inhibition of growth at 300 ppm (Pyricularia oryzae) | inhibition of growth at 300 ppm (Botrytis cinerea) | pest or weed control at 500 ppm (Phakopsora pachyrhizi) | inhibition of growth at 300 ppm [1]

CCN(C)C=Nc1cc(F)cc(N(C)c2cccc(C)c2)c1C [Compound 38, N-ethyl-N′-(5-fluoro-2-methyl-3-(methyl(m-tolyl)amino)phenyl)-N-methylformimidamide]
≥ 70%: inhibition of growth at 300 ppm (Alternaria solani) | inhibition of growth at 300 ppm (Rhizoctonia solani) | inhibition of growth at 300 ppm (Colletotrichum capsici) | inhibition of growth at 300 ppm (Pyricularia oryzae) | inhibition of growth at 300 ppm (Botrytis cinerea) | pest or weed control at 500 ppm (Phakopsora pachyrhizi) | inhibition of growth at 300 ppm [1]

CCN(C)C=Nc1cc(Cl)cc(Cc2ccccc2Cl)c1C [Compound 89, N′-(5-chloro-3-(2-chlorobenzyl)-2-methylphenyl)-N-ethyl-N-methylformimidamide]
≥ 70%: inhibition of growth at 300 ppm (Alternaria solani) | inhibition of growth at 300 ppm (Rhizoctonia solani) | inhibition of growth at 300 ppm (Colletotrichum capsici) | inhibition of growth at 300 ppm (Pyricularia oryzae) | inhibition of growth at 300 ppm (Botrytis cinerea) | pest or weed control at 500 ppm (Phakopsora pachyrhizi) | inhibition of growth at 300 ppm [1]

CCN(C)C=Nc1cc(C)cc(Nc2cc(Cl)ccc2C)c1Cl [Compound 100, N′-(2-chloro-3-((5-chloro-2-methylphenyl)amino)-5-methylphenyl)-N-ethyl-N-methylformimidamide]
≥ 70%: inhibition of growth at 300 ppm (Alternaria solani) | inhibition of growth at 300 ppm (Rhizoctonia solani) | inhibition of growth at 300 ppm (Colletotrichum capsici) | inhibition of growth at 300 ppm (Pyricularia oryzae) | inhibition of growth at 300 ppm (Botrytis cinerea) | pest or weed control at 500 ppm (Phakopsora pachyrhizi) | inhibition of growth at 300 ppm [1]

CCN(C)C=Nc1cc(C)cc(Nc2cccc(C(C)C)c2)c1Cl [Compound 58, N′-(2-chloro-3-((3-isopropylphenyl)amino)-5-methylphenyl)-N-ethyl-N-methylformimidamide]
≥ 70%: inhibition of growth at 300 ppm (Alternaria solani) | inhibition of growth at 300 ppm (Rhizoctonia solani) | inhibition of growth at 300 ppm (Colletotrichum capsici) | inhibition of growth at 300 ppm (Pyricularia oryzae) | inhibition of growth at 300 ppm (Botrytis cinerea) | pest or weed control at 500 ppm (Phakopsora pachyrhizi) | inhibition of growth at 300 ppm [1]

CCN(C)C=Nc1cc(F)cc(Nc2cccc(C)c2)c1C [Compound 31, N-ethyl-N′-(5-fluoro-2-methyl-3-(m-tolylamino)phenyl)-N-methylformimidamide]
≥ 70%: inhibition of growth at 300 ppm (Alternaria solani) | inhibition of growth at 300 ppm (Rhizoctonia solani) | inhibition of growth at 300 ppm (Colletotrichum capsici) | inhibition of growth at 300 ppm (Pyricularia oryzae) | inhibition of growth at 300 ppm (Botrytis cinerea) | pest or weed control at 500 ppm (Phakopsora pachyrhizi) | inhibition of growth at 300 ppm [1]

CCN(C)C=Nc1cc(F)cc(Cc2cccc(C(F)(F)F)c2)c1C [Compound 201, N-ethyl-N′-(5-fluoro-2-methyl-3-(3-(trifluoromethyl)benzyl)phenyl)-N-methylformimidamide]
≥ 70%: inhibition of growth at 300 ppm (Alternaria solani) | inhibition of growth at 300 ppm (Rhizoctonia solani) | inhibition of growth at 300 ppm (Colletotrichum capsici) | inhibition of growth at 300 ppm (Pyricularia oryzae) | inhibition of growth at 300 ppm (Botrytis cinerea) | pest or weed control at 500 ppm (Phakopsora pachyrhizi) | inhibition of growth at 300 ppm [1]

CCN(C)C=Nc1cc(Cl)cc(Cc2ccccc2F)c1C [Compound 103, N′-(5-chloro-3-(2-fluorobenzyl)-2-methylphenyl)-N-ethyl-N-methylformimidamide]
≥ 70%: inhibition of growth at 300 ppm (Alternaria solani) | inhibition of growth at 300 ppm (Rhizoctonia solani) | inhibition of growth at 300 ppm (Colletotrichum capsici) | inhibition of growth at 300 ppm (Pyricularia oryzae) | inhibition of growth at 300 ppm (Botrytis cinerea) | pest or weed control at 500 ppm (Phakopsora pachyrhizi) | inhibition of growth at 300 ppm [1]

CCN(C)C=Nc1cc(C)cc(Cc2c(F)cccc2F)c1Cl [Compound 91, N′-(2-chloro-3-(2,6-difluorobenzyl)-5-methylphenyl)-N-ethyl-N-methylformimidamide]
≥ 70%: inhibition of growth at 300 ppm (Alternaria solani) | inhibition of growth at 300 ppm (Rhizoctonia solani) | inhibition of growth at 300 ppm (Colletotrichum capsici) | inhibition of growth at 300 ppm (Pyricularia oryzae) | inhibition of growth at 300 ppm (Botrytis cinerea) | pest or weed control at 500 ppm (Phakopsora pachyrhizi) | inhibition of growth at 300 ppm [1]

CCN(C)C=Nc1cc(C)cc(Cc2c(F)cccc2Cl)c1Cl [Compound 92, N′-(2-chloro-3-(2-chloro-6-fluorobenzyl)-5-methylphenyl)-N-ethyl-N-methylformimidamide]
≥ 70%: inhibition of growth at 300 ppm (Alternaria solani) | inhibition of growth at 300 ppm (Rhizoctonia solani) | inhibition of growth at 300 ppm (Colletotrichum capsici) | inhibition of growth at 300 ppm (Pyricularia oryzae) | inhibition of growth at 300 ppm (Botrytis cinerea) | pest or weed control at 500 ppm (Phakopsora pachyrhizi) | inhibition of growth at 300 ppm [1]

CCN(C)C=Nc1cc(Cl)cc(Cc2ccc(F)c(C)c2)c1C [Compound 128, N′-(5-chloro-3-(4-fluoro-3-methylbenzyl)-2-methylphenyl)-N-ethyl-N-methylformimidamide]
≥ 70%: inhibition of growth at 300 ppm (Alternaria solani) | inhibition of growth at 300 ppm (Rhizoctonia solani) | inhibition of growth at 300 ppm (Colletotrichum capsici) | inhibition of growth at 300 ppm (Pyricularia oryzae) | inhibition of growth at 300 ppm (Botrytis cinerea) | pest or weed control at 500 ppm (Phakopsora pachyrhizi) | inhibition of growth at 300 ppm [1]

CCN(C)C=Nc1cc(F)cc(Nc2cc(Cl)cc(C(F)(F)F)c2)c1C [Compound 161, N′-(3-((3-chloro-5-(trifluoromethyl)phenyl)amino)-5-fluoro-2-methylphenyl)-N-ethyl-N-methylformimidamide]
≥ 70%: inhibition of growth at 300 ppm (Alternaria solani) | inhibition of growth at 300 ppm (Rhizoctonia solani) | inhibition of growth at 300 ppm (Colletotrichum capsici) | inhibition of growth at 300 ppm (Pyricularia oryzae) | inhibition of growth at 300 ppm (Botrytis cinerea) | pest or weed control at 500 ppm (Phakopsora pachyrhizi) | inhibition of growth at 300 ppm [1]

CCN(C)C=Nc1cc(C)cc(Nc2ccc(F)cc2)c1Cl [Compound 60, N′-(2-chloro-3-((4-fluorophenyl)amino)-5-methylphenyl)-N-ethyl-N-methylformimidamide]
≥ 70%: inhibition of growth at 300 ppm (Alternaria solani) | inhibition of growth at 300 ppm (Rhizoctonia solani) | inhibition of growth at 300 ppm (Colletotrichum capsici) | inhibition of growth at 300 ppm (Pyricularia oryzae) | inhibition of growth at 300 ppm (Botrytis cinerea) | pest or weed control at 500 ppm (Phakopsora pachyrhizi) | inhibition of growth at 300 ppm [1]

CCN(C)C=Nc1cc(Cl)cc(Cc2ccccc2)c1C [Compound 79, N′-(3-benzyl-5-chloro-2-methylphenyl)-N-ethyl-N-methylformimidamide]
≥ 70%: inhibition of growth at 300 ppm (Alternaria solani) | inhibition of growth at 300 ppm (Rhizoctonia solani) | inhibition of growth at 300 ppm (Colletotrichum capsici) | inhibition of growth at 300 ppm (Pyricularia oryzae) | inhibition of growth at 300 ppm (Botrytis cinerea) | pest or weed control at 500 ppm (Phakopsora pachyrhizi) | inhibition of growth at 300 ppm [1]

CCN(C)C=Nc1cc(C)cc(Nc2cccc(C)c2F)c1Cl [Compound 123, N′-(2-chloro-3-((2-fluoro-3-methylphenyl)amino)-5-methylphenyl)-N-ethyl-N-methylformimidamide]
≥ 70%: inhibition of growth at 300 ppm (Alternaria solani) | inhibition of growth at 300 ppm (Colletotrichum capsici) | inhibition of growth at 300 ppm (Pyricularia oryzae) | inhibition of growth at 300 ppm (Botrytis cinerea) | pest or weed control at 500 ppm (Phakopsora pachyrhizi) | inhibition of growth at 300 ppm [1]
